From PMC4178217, “Quinoline 3-sulfonamides inhibit lactate dehydrogenase A and reverse aerobic glycolysis in cancer cells” (Cancer & Metabolism, 2013)

Experiments:
[1] = target: Cyclooxygenase 2 (Homo sapiens, UniProt P35354); assay: Cyclooxygenase 2 ANT; type: biochemical; settings: antagonist; read-out: pIC50 Cyclooxygenase 2 ANT (converted)
Excerpt: (§1) ANT = antagonist (pIC50), AG = agonist (pEC50). pIC50 and pEC50 are the negative logarithms10 of IC50 and EC50, respectively. Click here for file

[2] = target: Dopamin Receptor D1 (Homo sapiens, UniProt P21728); assay: Dopamin Receptor D1 ANT; settings: antagonist; read-out: pIC50 Dopamin Receptor D1 ANT (converted)
Excerpt: as §1

[3] = target: T1, Muscarinic Receptor M1 (Homo sapiens, UniProt P11229); assay: Muscarinic Receptor M1 AG; settings: agonist; read-out: pEC50 Muscarinic Receptor M1 AG (converted)
T1 sequence (P11229 1-460): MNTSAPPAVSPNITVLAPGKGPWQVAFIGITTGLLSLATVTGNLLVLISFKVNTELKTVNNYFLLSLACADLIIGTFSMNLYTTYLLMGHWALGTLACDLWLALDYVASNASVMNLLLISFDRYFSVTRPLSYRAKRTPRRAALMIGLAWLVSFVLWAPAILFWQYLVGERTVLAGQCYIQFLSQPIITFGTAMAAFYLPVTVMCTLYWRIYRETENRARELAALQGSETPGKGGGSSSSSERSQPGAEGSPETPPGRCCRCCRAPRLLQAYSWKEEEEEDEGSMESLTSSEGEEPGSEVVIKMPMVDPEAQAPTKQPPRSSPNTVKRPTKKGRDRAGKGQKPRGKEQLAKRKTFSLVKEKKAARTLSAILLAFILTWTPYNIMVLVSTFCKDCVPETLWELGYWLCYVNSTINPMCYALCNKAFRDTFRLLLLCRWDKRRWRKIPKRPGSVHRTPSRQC
Excerpt: as §1

[4] = target: T2, Muscarinic Receptor M2 (Homo sapiens, UniProt P08172); assay: Muscarinic Receptor M2 ANT; settings: antagonist; read-out: pIC50 Muscarinic Receptor M2 ANT (converted)
T2 sequence (P08172 1-466): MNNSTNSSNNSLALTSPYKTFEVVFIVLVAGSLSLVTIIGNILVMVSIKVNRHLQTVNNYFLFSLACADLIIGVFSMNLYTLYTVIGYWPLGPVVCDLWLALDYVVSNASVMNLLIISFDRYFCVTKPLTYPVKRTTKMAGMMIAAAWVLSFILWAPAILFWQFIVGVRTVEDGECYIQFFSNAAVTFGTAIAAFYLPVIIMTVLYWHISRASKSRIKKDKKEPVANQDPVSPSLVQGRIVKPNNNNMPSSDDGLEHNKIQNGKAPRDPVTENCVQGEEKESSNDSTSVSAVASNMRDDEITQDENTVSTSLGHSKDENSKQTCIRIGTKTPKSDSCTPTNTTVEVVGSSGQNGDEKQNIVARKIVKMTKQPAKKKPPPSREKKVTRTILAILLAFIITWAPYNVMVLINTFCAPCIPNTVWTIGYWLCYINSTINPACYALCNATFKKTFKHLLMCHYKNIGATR
Excerpt: as §1

[5] = target: Norepinephrin Transporter (Homo sapiens, UniProt P23975); assay: Norepinephrin Transporter ANT; settings: antagonist; read-out: pIC50 Norepinephrin Transporter ANT (converted)
Excerpt: as §1

[6] = target: Opioid Receptor k (Homo sapiens, UniProt P41145); assay: Opioid Receptor k AG; settings: agonist; read-out: pEC50 Opioid Receptor k AG (converted)
Excerpt: as §1

[7] = target: Phosphoinositide 3-kinase g (Homo sapiens, UniProt P48736); assay: Phosphoinositide 3-kinase g ANT; type: biochemical; settings: antagonist; read-out: pIC50 Phosphoinositide 3-kinase g ANT (converted)
Excerpt: as §1

[8] = target: Serotonin Receptor 5HT1B (Homo sapiens, UniProt P28222); assay: Serotonin Receptor 5HT1B AG; settings: agonist; read-out: pEC50 Serotonin Receptor 5HT1B AG (converted)
Excerpt: as §1

[9] = target: T3, Serotonin Receptor 5HT2A (Homo sapiens, UniProt P28223); assay: Serotonin Receptor 5HT2A AG; settings: agonist; read-out: pEC50 Serotonin Receptor 5HT2A AG (converted)
Excerpt: as §1

[10] = target: T3, Serotonin Receptor 5HT2A; assay: Serotonin Receptor 5HT2A ANT; settings: antagonist; read-out: pIC50 Serotonin Receptor 5HT2A ANT (converted)
Excerpt: as §1

[11] = target: T4, Serotonin Receptor 5HT2C (Homo sapiens, UniProt P28335); assay: Serotonin Receptor 5HT2C AG; settings: agonist; read-out: pEC50 Serotonin Receptor 5HT2C AG (converted)
T4 sequence (P28335 33-458): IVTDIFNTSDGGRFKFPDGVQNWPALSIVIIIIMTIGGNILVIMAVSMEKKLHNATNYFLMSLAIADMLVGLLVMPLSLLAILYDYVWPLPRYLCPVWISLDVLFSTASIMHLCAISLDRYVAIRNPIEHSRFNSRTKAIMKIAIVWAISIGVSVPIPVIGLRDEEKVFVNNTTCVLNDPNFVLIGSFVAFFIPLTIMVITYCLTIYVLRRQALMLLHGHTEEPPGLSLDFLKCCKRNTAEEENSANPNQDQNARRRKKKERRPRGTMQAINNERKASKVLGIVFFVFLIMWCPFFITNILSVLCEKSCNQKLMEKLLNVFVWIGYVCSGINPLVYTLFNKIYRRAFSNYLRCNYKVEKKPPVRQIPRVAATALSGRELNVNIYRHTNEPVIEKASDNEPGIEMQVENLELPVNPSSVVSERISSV
Excerpt: as §1

[12] = target: T5, Serotonin Receptor 5HT3 (Homo sapiens, UniProt P46098); assay: Serotonin Receptor 5HT3 ANT; settings: antagonist; read-out: pIC50 Serotonin Receptor 5HT3 ANT (converted)
T5 sequence (P46098 24-478): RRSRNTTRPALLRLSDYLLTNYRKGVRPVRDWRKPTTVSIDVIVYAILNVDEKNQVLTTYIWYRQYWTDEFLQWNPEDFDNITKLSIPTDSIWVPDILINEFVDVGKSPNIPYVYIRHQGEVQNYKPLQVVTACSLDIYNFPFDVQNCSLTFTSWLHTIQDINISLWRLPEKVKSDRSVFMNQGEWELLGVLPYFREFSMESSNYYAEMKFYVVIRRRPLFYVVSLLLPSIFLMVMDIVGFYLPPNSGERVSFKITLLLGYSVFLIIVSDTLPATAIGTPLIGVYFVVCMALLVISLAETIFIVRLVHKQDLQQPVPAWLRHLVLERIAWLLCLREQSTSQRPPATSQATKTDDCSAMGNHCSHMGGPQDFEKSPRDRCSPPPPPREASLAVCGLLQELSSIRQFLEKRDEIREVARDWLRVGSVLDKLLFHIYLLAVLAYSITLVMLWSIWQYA
Excerpt: as §1

[13] = target: Vasopressin Receptor V1a (Homo sapiens, UniProt P37288); assay: Vasopressin Receptor V1a ANT; settings: antagonist; read-out: pIC50 Vasopressin Receptor V1a ANT (converted)
Excerpt: as §1

T3 sequence (P28223 whole entry): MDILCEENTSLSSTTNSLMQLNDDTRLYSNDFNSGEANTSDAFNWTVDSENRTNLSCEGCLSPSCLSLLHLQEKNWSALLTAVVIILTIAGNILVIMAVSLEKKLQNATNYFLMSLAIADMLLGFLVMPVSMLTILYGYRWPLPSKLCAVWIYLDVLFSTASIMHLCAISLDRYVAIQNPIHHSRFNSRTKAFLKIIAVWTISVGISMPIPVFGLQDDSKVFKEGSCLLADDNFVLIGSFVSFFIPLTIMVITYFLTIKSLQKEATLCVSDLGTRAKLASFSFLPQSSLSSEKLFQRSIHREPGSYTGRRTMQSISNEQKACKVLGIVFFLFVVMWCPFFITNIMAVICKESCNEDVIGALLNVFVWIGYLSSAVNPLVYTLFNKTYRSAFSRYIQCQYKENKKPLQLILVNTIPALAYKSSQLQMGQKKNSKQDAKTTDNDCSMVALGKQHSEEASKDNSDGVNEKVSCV
Vasopressin Receptor V1a, sequence (P37288 whole entry): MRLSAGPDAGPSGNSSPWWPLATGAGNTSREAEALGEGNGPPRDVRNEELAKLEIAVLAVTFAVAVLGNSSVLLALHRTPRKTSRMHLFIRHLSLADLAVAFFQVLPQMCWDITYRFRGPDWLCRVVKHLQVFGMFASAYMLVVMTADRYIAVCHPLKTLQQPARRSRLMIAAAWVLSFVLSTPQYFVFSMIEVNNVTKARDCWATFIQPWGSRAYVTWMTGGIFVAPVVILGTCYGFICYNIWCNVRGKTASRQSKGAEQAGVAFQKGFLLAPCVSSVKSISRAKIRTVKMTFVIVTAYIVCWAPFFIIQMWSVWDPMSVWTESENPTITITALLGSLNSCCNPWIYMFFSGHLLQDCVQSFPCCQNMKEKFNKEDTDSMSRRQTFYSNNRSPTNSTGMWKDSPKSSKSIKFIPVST
Phosphoinositide 3-kinase g, sequence (P48736 whole entry): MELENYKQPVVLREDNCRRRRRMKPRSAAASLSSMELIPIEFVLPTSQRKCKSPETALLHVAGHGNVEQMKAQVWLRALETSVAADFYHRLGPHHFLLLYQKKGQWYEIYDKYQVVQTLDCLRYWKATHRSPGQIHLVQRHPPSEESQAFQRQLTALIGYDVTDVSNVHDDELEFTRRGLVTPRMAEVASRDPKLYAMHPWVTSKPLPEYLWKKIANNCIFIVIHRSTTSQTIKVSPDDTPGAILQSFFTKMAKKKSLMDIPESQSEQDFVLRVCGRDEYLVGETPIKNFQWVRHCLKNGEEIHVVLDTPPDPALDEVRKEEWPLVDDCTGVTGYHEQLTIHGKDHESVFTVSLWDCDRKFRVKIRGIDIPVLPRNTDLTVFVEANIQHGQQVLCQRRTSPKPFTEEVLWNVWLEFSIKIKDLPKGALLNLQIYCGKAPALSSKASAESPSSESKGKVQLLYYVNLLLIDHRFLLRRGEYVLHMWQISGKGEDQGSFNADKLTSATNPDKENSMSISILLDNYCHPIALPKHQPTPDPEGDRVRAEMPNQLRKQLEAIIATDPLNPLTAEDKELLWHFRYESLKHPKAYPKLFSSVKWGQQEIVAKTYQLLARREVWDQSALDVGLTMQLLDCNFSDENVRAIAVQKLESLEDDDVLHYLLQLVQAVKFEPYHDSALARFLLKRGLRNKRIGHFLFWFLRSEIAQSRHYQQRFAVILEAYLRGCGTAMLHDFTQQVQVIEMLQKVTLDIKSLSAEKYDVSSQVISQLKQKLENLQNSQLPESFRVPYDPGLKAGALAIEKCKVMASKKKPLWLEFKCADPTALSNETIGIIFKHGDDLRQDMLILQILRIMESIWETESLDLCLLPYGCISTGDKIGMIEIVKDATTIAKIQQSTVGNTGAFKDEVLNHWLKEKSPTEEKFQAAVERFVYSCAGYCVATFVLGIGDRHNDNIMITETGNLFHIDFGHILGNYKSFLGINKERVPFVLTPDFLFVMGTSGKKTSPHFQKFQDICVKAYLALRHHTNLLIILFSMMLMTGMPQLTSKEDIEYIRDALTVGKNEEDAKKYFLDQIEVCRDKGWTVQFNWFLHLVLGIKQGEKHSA
Serotonin Receptor 5HT1B, sequence (P28222 whole entry): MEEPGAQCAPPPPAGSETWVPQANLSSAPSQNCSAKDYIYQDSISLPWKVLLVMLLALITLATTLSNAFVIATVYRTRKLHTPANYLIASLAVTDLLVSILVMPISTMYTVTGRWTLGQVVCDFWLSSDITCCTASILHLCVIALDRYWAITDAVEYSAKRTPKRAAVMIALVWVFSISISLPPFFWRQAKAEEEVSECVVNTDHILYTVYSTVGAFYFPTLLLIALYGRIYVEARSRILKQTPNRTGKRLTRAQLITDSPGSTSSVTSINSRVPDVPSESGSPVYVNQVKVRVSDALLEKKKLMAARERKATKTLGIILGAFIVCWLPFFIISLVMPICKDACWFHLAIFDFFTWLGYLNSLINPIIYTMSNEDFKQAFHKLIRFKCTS
Norepinephrin Transporter, sequence (P23975 whole entry): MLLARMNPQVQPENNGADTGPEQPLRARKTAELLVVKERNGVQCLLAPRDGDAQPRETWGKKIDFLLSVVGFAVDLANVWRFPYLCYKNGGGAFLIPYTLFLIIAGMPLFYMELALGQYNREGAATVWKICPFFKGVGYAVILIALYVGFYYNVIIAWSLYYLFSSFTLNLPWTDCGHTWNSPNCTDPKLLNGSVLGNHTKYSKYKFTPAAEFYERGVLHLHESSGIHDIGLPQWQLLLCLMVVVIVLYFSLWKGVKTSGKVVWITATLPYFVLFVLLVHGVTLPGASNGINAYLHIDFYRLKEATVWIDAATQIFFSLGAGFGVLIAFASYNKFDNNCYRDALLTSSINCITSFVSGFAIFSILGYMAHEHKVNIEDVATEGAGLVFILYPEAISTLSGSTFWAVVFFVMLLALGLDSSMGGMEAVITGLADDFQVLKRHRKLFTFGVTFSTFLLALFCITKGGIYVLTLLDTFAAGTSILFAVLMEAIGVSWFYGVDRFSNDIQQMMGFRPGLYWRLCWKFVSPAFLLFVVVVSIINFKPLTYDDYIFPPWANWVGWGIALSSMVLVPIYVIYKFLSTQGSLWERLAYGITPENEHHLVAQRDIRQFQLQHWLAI
Dopamin Receptor D1, sequence (P21728 whole entry): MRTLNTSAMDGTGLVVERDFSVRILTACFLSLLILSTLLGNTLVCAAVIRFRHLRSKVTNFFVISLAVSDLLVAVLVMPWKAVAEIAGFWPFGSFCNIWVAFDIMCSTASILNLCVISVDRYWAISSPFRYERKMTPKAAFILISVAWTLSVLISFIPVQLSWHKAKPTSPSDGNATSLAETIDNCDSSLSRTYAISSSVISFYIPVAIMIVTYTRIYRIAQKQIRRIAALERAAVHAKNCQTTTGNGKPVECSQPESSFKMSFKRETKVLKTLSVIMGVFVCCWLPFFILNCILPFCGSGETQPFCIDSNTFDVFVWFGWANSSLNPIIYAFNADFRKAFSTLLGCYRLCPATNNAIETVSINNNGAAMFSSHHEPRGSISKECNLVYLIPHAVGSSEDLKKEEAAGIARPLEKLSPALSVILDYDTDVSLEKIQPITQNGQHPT
Cyclooxygenase 2, sequence (P35354 18-604, species assumed): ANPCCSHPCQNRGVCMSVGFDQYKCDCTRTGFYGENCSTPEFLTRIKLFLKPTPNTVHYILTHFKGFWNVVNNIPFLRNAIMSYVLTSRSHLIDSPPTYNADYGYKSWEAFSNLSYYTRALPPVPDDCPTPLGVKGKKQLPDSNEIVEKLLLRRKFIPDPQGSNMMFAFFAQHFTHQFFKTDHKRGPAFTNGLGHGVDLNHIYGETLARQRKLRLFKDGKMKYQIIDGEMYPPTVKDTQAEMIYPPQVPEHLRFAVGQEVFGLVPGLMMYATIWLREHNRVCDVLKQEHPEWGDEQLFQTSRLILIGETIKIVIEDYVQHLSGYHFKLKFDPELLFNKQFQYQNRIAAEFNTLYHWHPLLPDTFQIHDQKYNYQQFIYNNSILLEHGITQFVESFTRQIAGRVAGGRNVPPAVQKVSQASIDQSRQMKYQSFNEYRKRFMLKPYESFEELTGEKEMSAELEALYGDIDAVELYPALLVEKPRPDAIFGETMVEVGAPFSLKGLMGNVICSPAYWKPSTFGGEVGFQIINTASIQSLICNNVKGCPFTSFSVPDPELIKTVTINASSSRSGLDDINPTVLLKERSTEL
Opioid Receptor k, sequence (P41145 whole entry): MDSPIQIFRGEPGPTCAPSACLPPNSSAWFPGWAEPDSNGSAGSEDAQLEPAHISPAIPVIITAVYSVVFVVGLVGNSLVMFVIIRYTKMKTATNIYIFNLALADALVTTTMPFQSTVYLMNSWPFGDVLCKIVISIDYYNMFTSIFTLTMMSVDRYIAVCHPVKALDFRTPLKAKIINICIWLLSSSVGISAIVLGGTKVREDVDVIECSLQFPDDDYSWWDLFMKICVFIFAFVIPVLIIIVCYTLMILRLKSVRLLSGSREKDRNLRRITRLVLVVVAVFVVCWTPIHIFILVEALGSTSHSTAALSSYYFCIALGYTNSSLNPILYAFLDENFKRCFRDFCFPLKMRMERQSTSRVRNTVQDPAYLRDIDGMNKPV

`COc1ncc(-c2ccc3c(Nc4cc(Oc5cc(F)cc(F)c5)cc(C(=O)O)c4)c(S(=O)(=O)NC4CC4)cnc3c2)c(OC)n1` [Compound 1] showed an IC50 [1] of 100 µM, an IC50 [2] of 31.6 µM and an EC50 [3] of 15.8 µM. It also gave an IC50 [4] of 15.8 µM, an IC50 [5] of 100 µM and an EC50 [6] of 100 µM. It also gave an IC50 [7] of 31.6 µM, an EC50 [8] of 31.6 µM and an EC50 [9] of 39.8 µM. It also gave an IC50 [10] of 39.8 µM, an EC50 [11] of 39.8 µM and an IC50 [12] of 50.1 µM. For the same molecule, the IC50 [13] was 50.1 µM.
In the case of `COc1ncc(-c2ccc3c(Nc4cc(C(=O)O)cc(C5CCCC5)c4)c(S(=O)(=O)NC4CC4)cnc3c2)c(OC)n1` [Compound 2], the IC50 [1] is reported as 63.1 µM, the IC50 [2] is reported as 31.6 µM and the EC50 [3] is reported as 15.8 µM. The IC50 [4] was 15.8 µM, the IC50 [5] was 100 µM and the EC50 [6] was 100 µM. For the same molecule, the IC50 [7] was 31.6 µM, the EC50 [8] was 31.6 µM and the EC50 [9] was 39.8 µM. The IC50 [10] was 31.6 µM, the EC50 [11] was 39.8 µM and the IC50 [12] was 12.6 µM. For the same molecule, the IC50 [13] was 20 µM.
